Several values for one entry are separate records, joined by “and”; a condition that tells them apart may be missing. Identical values can stand only once.
Key:
[1] = system: LEFCH; experiment: Example II: in-water applied weed control, transplanted paddy rice, greenhouse; format: in vivo, Leptochloa chinensis (L.) Nees (Chinese sprangletop)
Experimental: Weed seeds or nutlets of the desired test plant species were planted in puddled soil (mud) prepared by mixing a shredded, non-sterilized mineral soil (50.5 percent silt, 25.5 percent clay, and 24 percent sand, with a pH of about 7.6 and an organic matter content of about 2.9 percent) and water at a 1:1 volumetric ratio. The prepared mud was dispensed in 365 mL aliquots into 16-ounce (oz.) non-perforated plastic pots with a surface area of 86.59 square centimeters (cm^2) leaving a headspace of 3 centimeters (cm) in each pot. Mud was allowed to dry overnight prior to planting or transplanting. Rice seeds were planted in Sun Gro MetroMix® 306 planting mixture, which typically has a pH of 6.0 to 6.8 and an organic matter content of about 30 percent, in plastic plug trays. Seedlings at the second or third leaf stage of growth were transplanted into 840 mL of mud contained in 32-oz. non-perforated plastic pots with a surface area of 86.59 cm^2 4 days prior to herbicide application. The paddy was created by filling the headspace of the pots with 2.5 to 3 cm of water. When required to ensure good germination and healthy plants, a fungicide treatment and/or other chemical or physical treatment was applied. The plants were grown for 4-22 days in a greenhouse with an approximate 14 hr photoperiod which was maintained at about 29′C during the day and 26° C. during the night. Nutrients were added as Osmocote® (19:6:12, N:P:K+ minor nutrients) at 2 g per 16-oz. pot and 4 g per 32-oz. pot. Water was added on a regular basis to maintain the paddy flood, and supplemental lighting was provided with overhead metal halide 1000-Watt lamps as necessary. The plants were employed for testing when they reached the first through fourth true leaf stage.
Treatments consisted of the acid or esters of 4-amino-3-chloro-5-fluoro-6-(4-chloro-2-fluoro-3-methoxy-phenyl)pyridine-2-carboxylic acid (compound A) each formulated as an SC (suspension concentrate) and various herbicidal components alone and in combination. Forms of compound A were applied on an acid equivalent basis.
The herbicidal components were applied on an active ingredient basis and included very long chain fatty acid (VLCFA) synthesis-inhibiting and fatty acid/lipid synthesis-inhibiting herbicides acetochlor (technical grade material), acetochlor+dichlormid formulateded as Topnotch®, pretilachlor (technical grade material), butachlor formulated as Butachlor EC, fentrazamide formulated as Fentrazamide EC, thiobencarb formulated as Bolero® 8EC, cafenstrole formulated as Himeadow® WP or Lapost® Flowable, benfuresate formulated as Full Shot®, anilofos (technical grade material), mefenacet (technical grade material), molinate (technical grade material), and thenylchlor (technical grade material).
Treatment requirements for each compound or herbicidal component were calculated based upon the rates being tested, the concentration of active ingredient or acid equivalent in the formulation, an application volume of 2 mL per component per pot, and an application area of 86.59 cm^2 per pot.
For formulated compounds, a measured amount was placed in an individual 100 or 200 mL glass vial and was dissolved in a volume of 1.25% (v/v) Agri-Dex® crop oil concentrate to obtain application solutions.
For technical grade compounds, a weighed amount was placed in an individual 100 to 200 mL glass vial and was dissolved in a volume of acetone to obtain concentrated stock solutions. […] The concentrated stock solutions obtained were diluted with an equivalent volume of an aqueous mixture containing 2.5% (v/v) crop oil concentrate so that the final application solutions contained 1.25% (v/v) crop oil concentrate.
Applications were made by injecting with a pipetter appropriate amounts of the application solutions, individually and sequentially, into the aqueous layer of the paddy. Control plants were treated in the same manner with the solvent blank. […]

[2] = system: CYPRO; experiment: as above; format: in vivo, Cyperus rotundus L. (purple nutsedge)
Method in brief: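 Transplanted rice and weeds at the first to fourth true leaf stage in flooded mud pots (pH ~7.6 soil), greenhouse ~29/26 °C, 14 h photoperiod. Compound A (acid equivalent) and VLCFA/lipid-synthesis herbicides (active ingredient) injected into the paddy water in 1.25% crop oil concentrate. Injury scored visually at ~3 weeks versus untreated, 0–100%.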

With CCS(=O)(=O)Oc1ccc2c(c1)C(C)(C)CO2 [Benfuresate, 2,3-dihydro-3,3-dimethyl-5-benzofuranyl ethanesulfonate] the “Visual Weed Control LEFCH Obs” value ([1]; 75 gai/ha (Full Slot), 22 DAA) was 0% and the “Visual Weed Control LEFCH Obs” value ([1]; 150 gai/ha (Full Slot), 22 DAA) was 0%.

For CCN(CC)C(=O)n1cnc(S(=O)(=O)c2c(C)cc(C)cc2C)n1 [Cafenstrole, N,N-diethyl-3-[(2,4,6-trimethylphenyl)sulfonyl]-1H-1,2,4-triazole-1-carboxamide], the “Visual Weed Control LEFCH Obs” value ([1]; 210 gai/ha (Lapost Flowable), 21 DAA) was 38%, the “Visual Weed Control CYPRO Obs” value ([2]; 52.5 gai/ha (Himeadow WP), 21 DAA) was 0% and the “Visual Weed Control CYPRO Obs” value ([2]; 52.5 gai/ha (Lapost Flowable), 21 DAA) was 0%. For the same compound, the “Visual Weed Control CYPRO Obs” value ([2]; 105 gai/ha (Himeadow WP), 21 DAA) was 0% and the “Visual Weed Control CYPRO Obs” value ([2]; 105 gai/ha (Lapost Flowable), 21 DAA) was 0%.

With COc1c(Cl)ccc(-c2nc(C(=O)O)c(Cl)c(N)c2F)c1F [Compound A Acid, 4-amino-3-chloro-6-(4-chloro-2-fluoro-3-methoxyphenyl)-5-fluoropyridine-2-carboxylic acid] the “Visual Weed Control LEFCH Obs” value ([1]; 10.6 gae/ha, 22 DAA) was 20%, the “Visual Weed Control LEFCH Obs” value ([1]; 21.2 gae/ha, 22 DAA) was 40% and the “Visual Weed Control LEFCH Obs” value ([1]; 35 gae/ha, 21 DAA) was 5%. The “Visual Weed Control LEFCH Obs” value ([1]; 42.4 gae/ha, 22 DAA) was 60%, the “Visual Weed Control LEFCH Obs” value ([1]; 70 gae/ha, 21 DAA) was 23% and the “Visual Weed Control (%) - 20 DAA CYPRO Obs” value ([2]; 8.75 gae/ha) was 0%. For the same compound, the “Visual Weed Control (%) - 21 DAA CYPRO Obs” value ([2]; 8.75 gae/ha) was 0%, the “Visual Weed Control CYPRO Obs” value ([2]; 8.75 gae/ha, 21 DAA) was 0% and the “Visual Weed Control CYPRO Obs” value ([2]; 17.5 gae/ha, 21 DAA) was 20%. The “Visual Weed Control (%) - 20 DAA CYPRO Obs” value ([2]; 35 gae/ha) was 80% and 90%.

For COc1c(Cl)ccc(-c2nc(C(=O)OCc3ccccc3)c(Cl)c(N)c2F)c1F [Compound A Benzyl Ester, benzyl ester of 4-amino-3-chloro-5-fluoro-6-(4-chloro-2-fluoro-3-methoxy-phenyl)pyridine-2-carboxylic acid], the “Visual Weed Control LEFCH Obs” value ([1]; 4.38 gae/ha, 22 DAA) was 20%, the “Visual Weed Control LEFCH Obs” value ([1]; 8 gae/ha, 19 DAA) was 0% and the “Visual Weed Control LEFCH Obs” value ([1]; 16 gae/ha, 19 DAA) was 0%. For the same compound, the “Visual Weed Control LEFCH Obs” value ([1]; 32 gae/ha, 19 DAA) was 15%, the “Visual Weed Control LEFCH Obs” value ([1]; 35 gae/ha, 21 DAA) was 50% and the “Visual Weed Control LEFCH Obs” value ([1]; 70 gae/ha, 21 DAA) was 50%. The “Visual Weed Control (%) - 21 DAA CYPRO Obs” value ([2]; 4.38 gae/ha) was 0%, the “Visual Weed Control CYPRO Obs” value ([2]; 4.38 gae/ha, 20 DAA) was 0% and the “Visual Weed Control CYPRO Obs” value ([2]; 4.38 gae/ha, 21 DAA) was 0%. The “Visual Weed Control CYPRO Obs” value ([2]; 8 gae/ha, 19 DAA) was 50%, the “Visual Weed Control (%) - 20 DAA CYPRO Obs” value ([2]; 8.75 gae/ha) was 20% and 30% and the “Visual Weed Control (%) - 21 DAA CYPRO Obs” value ([2]; 8.75 gae/ha) was 30%. For the same compound, the “Visual Weed Control CYPRO Obs” value ([2]; 8.75 gae/ha, 20 DAA) was 20%, the “Visual Weed Control CYPRO Obs” value ([2]; 8.75 gae/ha, 21 DAA) was 30% and the “Visual Weed Control (%) - 20 DAA CYPRO Obs” value ([2]; 17.5 gae/ha) was 95%. The “Visual Weed Control CYPRO Obs” value ([2]; 17.5 gae/ha, 20 DAA) was 95%.

In the case of CCCOCCN(C(=O)CCl)c1c(CC)cccc1CC [Pretilachlor, 2-chloro-N-(2,6-diethylphenyl)-N-(2-propoxyethyl)acetamide], the “Visual Weed Control (%) - 20 DAA CYPRO Obs” value ([2]; 75 gai/ha) is reported as 0% and the “Visual Weed Control (%) - 20 DAA CYPRO Obs” value ([2]; 150 gai/ha) is reported as 0%.

From US20130310256A1, “HERBICIDAL COMPOSITIONS COMPRISING 4-AMINO-3-CHLORO-5-FLUORO-6-(4-CHLORO-2-FLUORO-3-METHOXYPHENYL) PYRIDINE-2-CARBOXYLIC ACID OR A DERIVATIVE THEREOF AND VLCFA AND LIPID SYNTHESIS INHIBITING HERBICIDES” (DOW AGROSCIENCES LLC, priority 2008, published 2013)
